The target of assay [1] is T1, serine hydroxymethyltransferase (PvSHMT) (Plasmodium vivax, UniProt A5K8L9).
T1 construct: gene PVX_100730
T1 sequence (A5K8L9 1-442): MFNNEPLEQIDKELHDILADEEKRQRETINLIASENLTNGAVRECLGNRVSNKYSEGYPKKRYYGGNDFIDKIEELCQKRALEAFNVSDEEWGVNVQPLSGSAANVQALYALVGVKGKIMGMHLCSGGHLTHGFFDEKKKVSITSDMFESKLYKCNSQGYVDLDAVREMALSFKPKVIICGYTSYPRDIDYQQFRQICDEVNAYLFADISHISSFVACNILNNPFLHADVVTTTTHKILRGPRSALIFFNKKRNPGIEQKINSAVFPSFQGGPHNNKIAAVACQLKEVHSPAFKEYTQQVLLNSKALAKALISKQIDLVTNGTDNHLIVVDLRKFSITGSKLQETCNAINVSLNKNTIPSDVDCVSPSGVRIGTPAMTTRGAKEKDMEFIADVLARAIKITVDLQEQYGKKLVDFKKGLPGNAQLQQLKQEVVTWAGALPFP
Kind of assay: X-ray crystal structure at […] Å; also […] inhibition at […] in SHMT–MTHFD coupled assay. The format is binding. The note with it: read-out: % inhibition at 1.55 mM.

Assay [2] concerns the target T1, serine hydroxymethyltransferase (PvSHMT). Kind of assay: SHMT–MTHFD coupled enzyme assay (L-Ser–THF); quinonoid formation with D-Ser by absorbance. In kind it is biochemical.
Assay [3] has the same target. The experiment in a line: X-ray crystal structure at […] Å. The format is binding.
Assay [4] has the same target. Kind of assay: X-ray crystal structure at […] Å. In kind it is binding. This is another data set of the same source.

With `Nc1nc(=O)c2c([nH]1)NC[C@@H](CNc1ccc(C(=O)N[C@@H](CCC(=O)O)C(=O)O)cc1)N2C=O` (racemic) [(6R)-5FTHF, (6R)-5-formyltetrahydrofolate], the inhibition (in general, how much of the control response was suppressed) at 1550 µM in assay [1] came to 30%.
With `Nc1nc(=O)c2c([nH]1)NC[C@H](CNc1ccc(C(=O)N[C@@H](CCC(=O)O)C(=O)O)cc1)N2C=O` [(6S)-5FTHF, (6S)-5-formyltetrahydrofolate], in assay [2], affinity was put at a Ki of 210 µM.
As to `N[C@@H](CO)C(=O)O` [L-Ser, L-serine], the “X-ray crystal structure at 2.5 Å” value in assay [3] is on record as 4pfn for the PLP–L-Ser external aldimine.
For `Cc1ncc(COP(=O)(O)O)c(C=O)c1O` [PLP, pyridoxal-5′-phosphate], in assay [4], the “X-ray crystal structure at 2.3 Å” value was 4pff for the PLP internal aldimine.

(Values after PMC4257618, “Structures of Plasmodium vivax serine hydroxymethyltransferase: implications for ligand-binding specificity and functional control” (Acta Crystallographica Section D: Biological Crystallography, 2014).)
